Assay results published in the supplement of paper PMC10307832.

Assays:
Assay in all cases: relative viability (nuclei count vs DMSO), 5 days (fraction); higher = more cells survive
BAY61-3606 + Palbociclib = compound: COC1=C(C=C(C=C1)C2=CC3=NC=CN3C(=N2)NC4=C(C=CC=N4)C(=O)N)OC [BAY61-3606] + CC(=O)c1c(C)c2cnc(Nc3ccc(N4CCNCC4)cn3)nc2n(C2CCCC2)c1=O [Palbociclib] (partner 0.5 µM)
Procedure, shortened: (§1)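 A single step with final 0.05% Triton X-100, 1% formaldehyde and 1 ug/ml Hoechst fixed the cells and stained nuclei 5 days after treatment. Lung cancer cell lines in 1536-well plates had been treated by pin tool the day after seeding with one drug alone or a fixed anchor-drug dose plus five library-drug doses (not always all listed) in √10 steps, and nuclei were counted on 4× images. Relative viability is the ratio of nuclei in treated wells to nuclei in vehicle wells, taken as the median of duplicate plates.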

Doxorubicin + Luminespib = compound: COc1cccc2c1C(=O)c1c(O)c3c(c(O)c1C2=O)C[C@@](O)(C(=O)CO)C[C@@H]3O[C@H]1C[C@H](N)[C@H](O)[C@H](C)O1 [Doxorubicin] + CCNC(=O)c1noc(-c2cc(C(C)C)c(O)cc2O)c1-c1ccc(CN2CCOCC2)cc1 [Luminespib] (partner 0.01 µM)
Procedure, shortened: as §1

BAY61-3606 + Lapatinib = compound: COC1=C(C=C(C=C1)C2=CC3=NC=CN3C(=N2)NC4=C(C=CC=N4)C(=O)N)OC [BAY61-3606] + CS(=O)(=O)CCNCc1ccc(-c2ccc3ncnc(Nc4ccc(OCc5cccc(F)c5)c(Cl)c4)c3c2)o1 [Lapatinib] (partner 2 µM)
Procedure, shortened: as §1

Doxorubicin + Tozasertib = compound: COc1cccc2c1C(=O)c1c(O)c3c(c(O)c1C2=O)C[C@@](O)(C(=O)CO)C[C@@H]3O[C@H]1C[C@H](N)[C@H](O)[C@H](C)O1 [Doxorubicin] + Cc1cc(Nc2cc(N3CCN(C)CC3)nc(Sc3ccc(NC(=O)C4CC4)cc3)n2)n[nH]1 [Tozasertib] (partner 0.1 µM)
Procedure, shortened: as §1

UMC-11
relative viability (BAY61-3606 + Palbociclib; first compound 0.02 µM): 0.352
relative viability (BAY61-3606 + Palbociclib; first compound 0.06325 µM): 0.319
relative viability (BAY61-3606 + Palbociclib; first compound 0.2 µM): 0.304
relative viability (BAY61-3606 + Palbociclib; first compound 0.6325 µM): 0.361
relative viability (BAY61-3606 + Palbociclib; first compound 2 µM): 0.339
relative viability (Doxorubicin + Luminespib; first compound 0.001 µM): 0.998
relative viability (Doxorubicin + Luminespib; first compound 0.003162 µM): 1.12
relative viability (Doxorubicin + Luminespib; first compound 0.01 µM): 0.943
relative viability (Doxorubicin + Luminespib; first compound 0.03162 µM): 0.642
relative viability (Doxorubicin + Luminespib; first compound 0.1 µM): 0.601
relative viability (BAY61-3606 + Lapatinib; first compound 0.02 µM): 1.16
relative viability (BAY61-3606 + Lapatinib; first compound 0.06325 µM): 0.944
relative viability (BAY61-3606 + Lapatinib; first compound 0.2 µM): 0.832
relative viability (BAY61-3606 + Lapatinib; first compound 0.6325 µM): 1.1
relative viability (BAY61-3606 + Lapatinib; first compound 2 µM): 0.958
relative viability (Doxorubicin + Tozasertib; first compound 0.001 µM): 0.22
relative viability (Doxorubicin + Tozasertib; first compound 0.003162 µM): 0.215
relative viability (Doxorubicin + Tozasertib; first compound 0.01 µM): 0.209
relative viability (Doxorubicin + Tozasertib; first compound 0.03162 µM): 0.21
relative viability (Doxorubicin + Tozasertib; first compound 0.1 µM): 0.208
